PubChem BioAssay AID330 (DTP/NCI, 2004)
“And” between values parts separate entries of the source, which are not always exact repeats. Identical values can stand only once. Toxic doses and inconclusive results are not listed.

System: P388 leukemia ip, CD2F1 mice, survival T/C
Assay: NCI In Vivo Anticancer Drug Screen. Data for tumor model P388 Leukemia (intraperitoneal) in CD2F1 (CDF1) mice
Details: endpoint: median survival time, higher = longer survival
Outline: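 Mice carrying the transplanted tumor received test compound or vehicle. Survival was recorded in each group, and the value is the treated-group measurement divided by that of the vehicle-treated control group.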

[1] = dose: 100.0 mg/kg/injection, schedule: Q04DX003 (ip), vehicle: saline
[2] = dose: 25.0 mg/kg/injection, schedule: Q01DX009 (ip), vehicle: saline with Tween-80

With `CCCNC(=O)NS(=O)(=O)c1ccc(Cl)cc1` the T/C (dose: 50.0 mg/kg/injection, schedule: Q04DX003 (ip), vehicle: saline with Tween-80) was 102 % of control, the T/C (dose: 100.0 mg/kg/injection, schedule: Q04DX003 (ip), vehicle: saline with Tween-80) was 109 % of control and the T/C (dose: 200.0 mg/kg/injection, schedule: Q04DX003 (ip), vehicle: saline with Tween-80) was 100 % of control.

For `COc1ccc(-c2cc(=O)c3cccc(CC(=O)O)c3o2)cc1`, the T/C (dose: 12.5 mg/kg/injection, schedule: Q01DX005 (ip), vehicle: Klucel (hydroxypropylcellulose) (HPC)) was 105 % of control, the T/C (dose: 25.0 mg/kg/injection, schedule: Q01DX005 (ip), vehicle: Klucel (hydroxypropylcellulose) (HPC)) was 104 % of control and the T/C (dose: 50.0 mg/kg/injection, schedule: Q01DX005 (ip), vehicle: Klucel (hydroxypropylcellulose) (HPC)) was 114 % of control and 98 % of control. The T/C (dose: 100.0 mg/kg/injection, schedule: Q01DX005 (ip), vehicle: Klucel (hydroxypropylcellulose) (HPC)) was 170 % of control.

In the case of `CCOC(=O)c1cnc2c(cnn2CC)c1NN=C(C)C`, the T/C (dose: 66.0 mg/kg/injection, schedule: Q04DX003 (ip), vehicle: saline) is reported as 109 % of control, the T/C [1] is reported as 109 % of control and the T/C (dose: 150.0 mg/kg/injection, schedule: Q04DX003 (ip), vehicle: saline) is reported as 104 % of control.

`CC(=O)OC1(CSc2ccccc2)CCCCC1` was tested, and the T/C [2] was 89 % of control, the T/C (dose: 50.0 mg/kg/injection, schedule: Q01DX009 (ip), vehicle: saline with Tween-80) was 101 % of control and 102 % of control and the T/C (dose: 100.0 mg/kg/injection, schedule: Q01DX009 (ip), vehicle: saline with Tween-80) was 104 % of control and 109 % of control. The T/C (dose: 200.0 mg/kg/injection, schedule: Q01DX009 (ip), vehicle: saline with Tween-80) was 108 % of control and 111 % of control and the T/C (dose: 400.0 mg/kg/injection, schedule: Q01DX009 (ip), vehicle: saline with Tween-80) was 111 % of control.

With `O=[N+]([O-])c1ccc([S][Sn]([c]2ccccc2)([c]2ccccc2)[c]2ccccc2)cc1` the T/C (dose: 50.0 mg/kg/injection, schedule: Q04DX003 (ip), vehicle: saline) was 101 % of control and 92 % of control, the T/C [1] was 98 % of control and 104 % of control and 109 % of control and the T/C (dose: 200.0 mg/kg/injection, schedule: Q04DX003 (ip), vehicle: saline) was 108 % of control and 109 % of control and 110 % of control. For the same molecule, the T/C (dose: 400.0 mg/kg/injection, schedule: Q04DX003 (ip), vehicle: saline) was 101 % of control and 102 % of control and 120 % of control.

`C=C(Br)c1ccc2c(c1)OCO2` was tested, and the T/C (dose: 60.0 mg/kg/injection, schedule: Q01DX005 (ip), vehicle: saline with Tween-80) was 106 % of control, the T/C (dose: 120.0 mg/kg/injection, schedule: Q01DX005 (ip), vehicle: saline with Tween-80) was 102 % of control and the T/C (dose: 240.0 mg/kg/injection, schedule: Q01DX005 (ip), vehicle: saline with Tween-80) was 102 % of control.

With `COc1ccc(/C=C/c2ccc3ccccc3[n+]2C)cc1` the T/C (dose: 11.0 mg/kg/injection, schedule: Q01DX009 (ip), vehicle: saline with Tween-80) was 122 % of control, the T/C (dose: 12.5 mg/kg/injection, schedule: Q01DX009 (ip), vehicle: saline with Tween-80) was 124 % of control and the T/C [2] was 122 % of control.

In the case of `CC(=O)OC1C2OC3C=C(C)CCC3(CO)C(C)(C1O)C21CO1` (stereo not given), the T/C (dose: 0.5 mg/kg/injection, schedule: Q01DX009 (ip), vehicle: saline) is reported as 95 % of control, the T/C (dose: 1.0 mg/kg/injection, schedule: Q01DX009 (ip), vehicle: saline) is reported as 96 % of control and the T/C (dose: 2.0 mg/kg/injection, schedule: Q01DX009 (ip), vehicle: saline) is reported as 106 % of control. The T/C (dose: 4.0 mg/kg/injection, schedule: Q01DX009 (ip), vehicle: saline) was 112 % of control.

With `NC(=O)NN(Cc1ccc(Br)cc1)N=O` the T/C (dose: 100.0 mg/kg/injection, schedule: Q01DX001 (ip), vehicle: Klucel (hydroxypropylcellulose) (HPC)) was 96 % of control, the T/C (dose: 200.0 mg/kg/injection, schedule: Q01DX001 (ip), vehicle: Klucel (hydroxypropylcellulose) (HPC)) was 97 % of control and the T/C (dose: 400.0 mg/kg/injection, schedule: Q01DX001 (ip), vehicle: Klucel (hydroxypropylcellulose) (HPC)) was 97 % of control.

For `Cc1ccccc1NC(=O)Nc1sc(=S)c2c(c1C#N)CCCC2`, the T/C (dose: 50.0 mg/kg/injection, schedule: Q01DX005 (ip), vehicle: saline with Tween-80) was 94 % of control, the T/C (dose: 100.0 mg/kg/injection, schedule: Q01DX005 (ip), vehicle: saline with Tween-80) was 103 % of control and the T/C (dose: 200.0 mg/kg/injection, schedule: Q01DX005 (ip), vehicle: saline with Tween-80) was 103 % of control.
